From patent US12061143B2, “Methods for rapid determinations of antibiotic susceptibility phenotypes” (priority 2018, dated 2024)

What was measured:
Assay type in all cases: cell-based
A. nosocomialis M2 = experiment: MIC by broth microdilution AST
Method: (§1) Varied counts of bacteria were mixed with human blood and diluted 1:9 (v/v) with bacterial growth medium to desired bacterial concentrations (<10 CFU/mL final solution) and plated to independently confirm CFU/mL blood. Saponin was immediately added and the samples shaken for 15 minutes to achieve selective blood cell lysis. After hemolysis, bacteria were spun down and washed with PBS. The pellets were resuspended in bacterial growth medium and incubated at 37° C. for 2 hours, followed by another 3-hour incubation with antibiotics at various fractions of the minimum inhibition concentration (MIC, as independently determined by microdilution from the pure starting culture, Table 1) for sensitive strains or at the CLSI MIC resistant breakpoints^(12) for the highly resistant strains. Changes in scattered light signals largely resulting from bacterial growth inhibition were monitored by flow cytometry, and the difference in the 2-D scatter histograms with and without antibiotic treatment was quantified with PB-sQF statistics.^(1) Using PB-sQF, distance was calculated for each antibiotic concentration relative to its own no-antibiotic control and expressed as “fold distance” relative to the 99% confidence limit distance between the no-antibiotic control and the sensitive breakpoint. This allowed comparison of fold distances among all samples as each is individually paired to its own control, as is each replicate.
(§2) All clinical isolates (E. coli strains Mu14S and Mu890, K. pneumoniae strains Mu670 and Mu55, A. nosocomialis strains M2) were obtained from the Georgia Emerging Infection Program (GEIP). The MIC of each isolate was determined by a clinical microbiology laboratory using post blood culture automated AST and confirmed using broth microdilution in our laboratory. The MICs of each strain were measured to be as follows. For A. nosocomialis strain M2, 1 μg/mL tetracycline, 2 μg/mL gentamicin, and >1024 μg/mL ampicillin. For E. coli strain Mu890, 1 μg/mL tetracycline, 8 μg/mL gentamicin, and >1024 μg/mL ampicillin. For E. coli strain Mu14S, >64 μg/mL tetracycline, 8 μg/mL gentamicin, and >1024 μg/mL ampicillin. For K. pneumoniae strain Mu55, >64 μg/mL tetracycline, 1 μg/mL gentamicin, and >1024 μg/mL ampicillin. For K. pneumoniae strain Mu670, 2 μg/mL tetracycline, 4 μg/mL gentamicin, and >1024 μg/mL ampicillin.

E. coli Mu14S = experiment: MIC by broth microdilution AST
Method: as §1, §2

E. coli Mu890 = experiment: MIC by broth microdilution AST; settings: E. coli Mu890
Method: as §1, §2

K. pneumoniae Mu55 = experiment: MIC by broth microdilution AST
Method: as §1, §2

K. pneumoniae Mu670 = experiment: MIC by broth microdilution AST
Method: as §1, §2

[1] = system: 10% human blood samples without bacteria inoculation; experiment: Antibiotic-treated 10% human blood only control (no bacteria), flow cytometry; settings: 10% human blood without bacteria, around the resistance breakpoints of Enterobacteriaceae
Method: FIGS. 6A-6D. Antibiotic-treated 10% human blood only results. Cytometric data with (FIG. 6A) Ampicillin (FIG. 6B) Tetracycline (FIG. 6C) Gentamicin. The greyscale plots are the no-antibiotic controls and the black contour plots are the antibiotic-treated data with the antibiotic concentration indicated at each plot. (FIG. 6D) PB-sQF results for FIGS. 6A-6C). […] For each antibiotic, the resistant breakpoints of Enterobacteriaceae are 16 μg/mL for tetracycline and gentamicin and 32 μg/mL for ampicillin.
This confirms that the gentamicin sensitivity of Mu14S observed after blood culture^(1) can also be observed on much shorter timescales with FAST. Overnight plating confirms that initial Mu14S counts were 3, 2, 5 and CFU/mL for tetracycline, gentamicin and ampicillin data after 10-fold dilution of the blood/bacteria mixture, corresponding to FAST being performed on whole blood samples containing ˜30, ˜20 and ˜50 CFU/mL. […] Thus, diluting bacterimic blood specimens 1:9 (v:v) directly into saponin-containing growth medium provides a path to ASTs within 8 hours from initial blood draw, with excellent results matching independent (36-44 hrs) MIC determinations from pure, overnight cultures (˜10^8 CFU/mL) that could only be initiated after (˜24 hr) positive blood culture.

[2] = class according to 2016 CLSI handbook
[3] = microdilution from pure culture

Gentamicin
MIC (S/I/R) (A. nosocomialis M2; [2]): (S)
MIC (A. nosocomialis M2; [3]): 2 µg/mL
MIC (S/I/R) (E. coli Mu14S; [2]): (I)
MIC (E. coli Mu14S; [3]): 8 µg/mL
MIC (S/I/R) (E. coli Mu890; [2]): (I)
MIC (E. coli Mu890; [3]): 8 µg/mL
MIC (S/I/R) (K. pneumoniae Mu55; [2]): (S)
MIC (K. pneumoniae Mu55; [3]): 1 µg/mL
MIC (S/I/R) (K. pneumoniae Mu670; [2]): (S)
MIC (K. pneumoniae Mu670; [3]): 4 µg/mL
scattered light histograms change [1]: do not significantly change
